Measurements reported in BigSolDB 2.1.

CC(=O)O[C@H]1NC(=O)[C@@H]1[C@@H](C)O[Si](C)(C)C(C)(C)C
solubility (mole fraction)
Settings	293.15 K	298.15 K	303.15 K	308.15 K	313.15 K	318.15 K	323.15 K	328.15 K	333.15 K
in THF	0.238	0.242	0.251	0.264	0.278	0.3	0.323	0.342	0.368
in acetone	0.147	0.166	0.186	0.203	0.218	0.233	0.244	0.254	0.259
in acetonitrile	0.0493	0.0629	0.0792	0.0963	0.114	0.132	0.15	0.166	0.184
in chloroform	0.258	0.266	0.276	0.291	0.308	0.325	0.347	0.371	0.403
in cyclohexane	0.0028	0.00408	0.00582	0.00838	0.0116	0.0163	0.0223	0.0306	0.0413
in ethanol	0.0492	0.0601	0.072	0.0859	0.104	0.121	0.145	0.17	0.2
in ethyl acetate	0.159	0.179	0.198	0.216	0.24	0.264	0.294	0.326	0.356
in methanol	0.0593	0.069	0.0809	0.0959	0.113	0.134	0.161	0.193	0.233
in n-butyl acetate	0.13	0.145	0.163	0.18	0.199	0.221	0.251	0.288	0.326
in n-hexane	0.00287	0.00411	0.00577	0.00813	0.0116	0.0161	0.022	0.0305	0.0422
in toluene	0.0796	0.096	0.116	0.141	0.163	0.186	0.209	0.238	0.265
